Data published in the supplement of paper PMC11208160.

assay: recombinant UMI read abundance after kanamycin selection (control-corrected) (log10(CPM+1)); higher = more efficient recombination; extreme values may be limits of the assay; sequences stand for … in AGTGCAGAGAAAATCGGCCAGTTTTCTCTGCCTGCAGTCCGCATGCCGTGGGACCCCTTGGGTTCTAACCTGTTGCCTAGATTTATGCAGCGGACTGCCTTTCTCCCAAAGTGATAAACCGG…AGGTTGGTTTCACT; site = the 11-nt donor
How it was run: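 Values are reported as log10(CPM+1), obtained by converting sequencing counts to CPM, averaging replicates and scaling by control-derived factors. The counts came from recombinant UMIs amplified by PCR across the donor–target junction. These UMIs came from a pooled Escherichia coli screen of donor and donor-binding-loop pairs for the IS621 bridge recombinase, plated with IPTG (0.07 mM) plus kanamycin or left unselected, in two replicates each.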
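Further: IS621 bridge recombinase in Escherichia coli cells against a fixed T5 target plasmid.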

Row | Sequence | recombinant UMI read abundance (log10)
1 | ATTAAGACATGGACCGGTTTTCCCGGTAATCCGTATTTGGT (site ATTAAGACTAC) | 1.07
2 | ATTAAGACATGGACCGGTTTTCCCGGTAATCCGTATTTGGT (site ATTCAGACTAC) | 0.417
3 | ATTAAGACATGGACCGGTTTTCCCGGTAATCCGTATTTGGT (site ATTGAGACTAC) | 0.577
4 | ATTAAGACATGGACCGGTTTTCCCGGTAATCCGTATTTGGT (site ATTTAGACTAC) | 0.285
5 | ATTAGGCCATGGACCGGTTTTCCCGGTAATCCGTATTTGTG (site ATTAGGCCTCA) | 0.00967
6 | ATTCAAGCATGGACCGGTTTTCCCGGTAATCCGTATTTGAG (site ATACAAGCTCT) | 1.07
7 | ATTCAAGCATGGACCGGTTTTCCCGGTAATCCGTATTTGAG (site ATCCAAGCTCT) | 0.605
8 | ATTCAAGCATGGACCGGTTTTCCCGGTAATCCGTATTTGAG (site ATGCAAGCTCT) | 0.501
9 | ATTCAAGCATGGACCGGTTTTCCCGGTAATCCGTATTTGAG (site ATTCAAGCTCT) | 1.16
10 | ATTCAGACATGGACCGGTTTTCCCGGTAATCCGTATTTGGT (site ATTAAGACTAC) | 0.402
11 | ATTCAGACATGGACCGGTTTTCCCGGTAATCCGTATTTGGT (site ATTCAGACTAC) | 0.566
12 | ATTCAGACATGGACCGGTTTTCCCGGTAATCCGTATTTGGT (site ATTGAGACTAC) | 0.305
13 | ATTCAGACATGGACCGGTTTTCCCGGTAATCCGTATTTGGT (site ATTTAGACTAC) | 0.0116
14 | ATTCATACATGGACCGGTTTTCCCGGTAATCCGTATTTGTT (site ATTCATACTAA) | 0.291
15 | ATTGAGACATGGACCGGTTTTCCCGGTAATCCGTATTTGGG (site ATTGAGACTAC) | 0.0103
16 | ATTGAGACATGGACCGGTTTTCCCGGTAATCCGTATTTGGG (site ATTGAGACTCC) | 0.0142
17 | ATTGAGACATGGACCGGTTTTCCCGGTAATCCGTATTTGGG (site ATTGAGACTGC) | 0
18 | ATTGAGACATGGACCGGTTTTCCCGGTAATCCGTATTTGGG (site ATTGAGACTTC) | 0.0235
19 | ATTGAGTCATGGACCGGTTTTCCCGGTAATCCGTATTTGGT (site ATTGAGACTAC) | 0.0845
20 | ATTGAGTCATGGACCGGTTTTCCCGGTAATCCGTATTTGGT (site ATTGAGCCTAC) | 0.00525
21 | ATTGAGTCATGGACCGGTTTTCCCGGTAATCCGTATTTGGT (site ATTGAGGCTAC) | 0
22 | ATTGAGTCATGGACCGGTTTTCCCGGTAATCCGTATTTGGT (site ATTGAGTCTAC) | 2.29
23 | ATTGTAACATGGACCGGTTTTCCCGGTAATCCGTATTTGCT (site AATGTAACTAG) | 1.49

Row | Sequence | recombinant UMI read abundance (log10)
24 | ATTGTAACATGGACCGGTTTTCCCGGTAATCCGTATTTGCT (site ACTGTAACTAG) | 1.9
25 | ATTGTAACATGGACCGGTTTTCCCGGTAATCCGTATTTGCT (site AGTGTAACTAG) | 1.5
26 | ATTGTAACATGGACCGGTTTTCCCGGTAATCCGTATTTGCT (site ATTGTAACTAG) | 2.15
27 | ATTGTTGCATGGACCGGTTTTCCCGGTAATCCGTATTTGAC (site ATTGTTGCTGT) | 2.18
28 | ATTGTTGCATGGACCGGTTTTCCCGGTAATCCGTATTTGCT (site ATTGTTGCTAG) | 2.37
29 | ATTTAGACATGGACCGGTTTTCCCGGTAATCCGTATTTGCG (site ATTTAGACTCG) | 1.16
30 | ATTTAGTCATGGACCGGTTTTCCCGGTAATCCGTATTTGTT (site CACATCCCTTC) | 0.0539
31 | ATTTCTACATGGACCGGTTTTCCCGGTAATCCGTATTTGTT (site ATTTCTACTAA) | 0.0251
32 | ATTTGATCATGGACCGGTTTTCCCGGTAATCCGTATTTGTG (site ATTTGATCTCA) | 1.71
33 | CAAACAGCATGGACCGGTTTTCCCGGTAATCCGTATTTGCT (site CAAACAGCTAG) | 2.26
34 | CAAACAGCATGGACCGGTTTTCCCGGTAATCCGTATTTGCT (site CAACCAGCTAG) | 0.00434
35 | CAAACAGCATGGACCGGTTTTCCCGGTAATCCGTATTTGCT (site CAAGCAGCTAG) | 0.00437
36 | CAAACAGCATGGACCGGTTTTCCCGGTAATCCGTATTTGCT (site CAATCAGCTAG) | 0
37 | CAAAGAACATGGACCGGTTTTCCCGGTAATCCGTATTTGCG (site CAAAGAACTCG) | 2.53
38 | CAAAGGGCATGGACCGGTTTTCCCGGTAATCCGTATTTGAC (site CAAAGGGCTGT) | 2.62
39 | CAAATTTCATGGACCGGTTTTCCCGGTAATCCGTATTTGTG (site CAAATTTCTCA) | 0.763
40 | CAACAGACATGGACCGGTTTTCCCGGTAATCCGTATTTGAA (site CAACAGACTTT) | 1.88
41 | CAACCAGCATGGACCGGTTTTCCCGGTAATCCGTATTTGCT (site CAAACAGCTAG) | 0
42 | CAACCAGCATGGACCGGTTTTCCCGGTAATCCGTATTTGCT (site CAACCAGCTAG) | 0
43 | CAACCAGCATGGACCGGTTTTCCCGGTAATCCGTATTTGCT (site CAAGCAGCTAG) | 0
44 | CAACCAGCATGGACCGGTTTTCCCGGTAATCCGTATTTGCT (site CAATCAGCTAG) | 0
45 | CAACCCACATGGACCGGTTTTCCCGGTAATCCGTATTTGAT (site CAACCCACTAT) | 0.946
46 | CAACCTGCATGGACCGGTTTTCCCGGTAATCCGTATTTGGC (site CAACCTGCTGC) | 0

Row | Sequence | recombinant UMI read abundance (log10)
47 | CAACTAACATGGACCGGTTTTCCCGGTAATCCGTATTTGGA (site CAACTAACTTC) | 1.93
48 | CAACTAACATGGACCGGTTTTCCCGGTAATCCGTATTTGGA (site CCACTAACTTC) | 0.226
49 | CAACTAACATGGACCGGTTTTCCCGGTAATCCGTATTTGGA (site CGACTAACTTC) | 0.548
50 | CAACTAACATGGACCGGTTTTCCCGGTAATCCGTATTTGGA (site CTACTAACTTC) | 0.341
51 | CAACTAGCATGGACCGGTTTTCCCGGTAATCCGTATTTGCA (site CAACTAGCTTG) | 1.13
52 | CAACTATCATGGACCGGTTTTCCCGGTAATCCGTATTTGAT (site CAACTATCTAT) | 0.885
53 | CAAGAATCATGGACCGGTTTTCCCGGTAATCCGTATTTGAC (site CAAGAATCTGT) | 2.88
54 | CAAGAATCATGGACCGGTTTTCCCGGTAATCCGTATTTGAC (site CTAGTATCTGT) | 0.416
55 | CAAGACACATGGACCGGTTTTCCCGGTAATCCGTATTTGGG (site CAAGACACTCC) | 1.28
56 | CAAGACACATGGACCGGTTTTCCCGGTAATCCGTATTTGGG (site CAAGCCACTCC) | 0.00576
57 | CAAGACACATGGACCGGTTTTCCCGGTAATCCGTATTTGGG (site CAAGGCACTCC) | 0.0364
58 | CAAGACACATGGACCGGTTTTCCCGGTAATCCGTATTTGGG (site CAAGTCACTCC) | 0.274
59 | CAAGATACATGGACCGGTTTTCCCGGTAATCCGTATTTGGT (site CAAGATACTAC) | 1.97
60 | CAAGCACCATGGACCGGTTTTCCCGGTAATCCGTATTTGTG (site CAAGCACCTCA) | 0.018
61 | CAAGCACCATGGACCGGTTTTCCCGGTAATCCGTATTTGTG (site CAAGCCCCTCA) | 0.00553
62 | CAAGCACCATGGACCGGTTTTCCCGGTAATCCGTATTTGTG (site CAAGCGCCTCA) | 0.00843
63 | CAAGCACCATGGACCGGTTTTCCCGGTAATCCGTATTTGTG (site CAAGCTCCTCA) | 0
64 | CAAGCAGCATGGACCGGTTTTCCCGGTAATCCGTATTTGCA (site CAAGCAGCTAG) | 1.22
65 | CAAGCAGCATGGACCGGTTTTCCCGGTAATCCGTATTTGCA (site CAAGCAGCTCG) | 1.43
66 | CAAGCAGCATGGACCGGTTTTCCCGGTAATCCGTATTTGCA (site CAAGCAGCTGG) | 1.06
67 | CAAGCAGCATGGACCGGTTTTCCCGGTAATCCGTATTTGCA (site CAAGCAGCTTG) | 2.81
68 | CAAGCAGCATGGACCGGTTTTCCCGGTAATCCGTATTTGGT (site CAAGCAGCTAA) | 0.922
